Measurements as given in US20130109721A1, “FAAH Inhibitors” (Ironwood Pharmaceuticals, Inc., priority 2009, published 2013).

Molecular target: T1, FAAH (Mus musculus, UniProt O08914)
T1 construct: Whole brain tissue from these mice was collected; from tissue; host or cells: CD-1 mouse whole brain membrane homogenate
T1 sequence (O08914 1-579): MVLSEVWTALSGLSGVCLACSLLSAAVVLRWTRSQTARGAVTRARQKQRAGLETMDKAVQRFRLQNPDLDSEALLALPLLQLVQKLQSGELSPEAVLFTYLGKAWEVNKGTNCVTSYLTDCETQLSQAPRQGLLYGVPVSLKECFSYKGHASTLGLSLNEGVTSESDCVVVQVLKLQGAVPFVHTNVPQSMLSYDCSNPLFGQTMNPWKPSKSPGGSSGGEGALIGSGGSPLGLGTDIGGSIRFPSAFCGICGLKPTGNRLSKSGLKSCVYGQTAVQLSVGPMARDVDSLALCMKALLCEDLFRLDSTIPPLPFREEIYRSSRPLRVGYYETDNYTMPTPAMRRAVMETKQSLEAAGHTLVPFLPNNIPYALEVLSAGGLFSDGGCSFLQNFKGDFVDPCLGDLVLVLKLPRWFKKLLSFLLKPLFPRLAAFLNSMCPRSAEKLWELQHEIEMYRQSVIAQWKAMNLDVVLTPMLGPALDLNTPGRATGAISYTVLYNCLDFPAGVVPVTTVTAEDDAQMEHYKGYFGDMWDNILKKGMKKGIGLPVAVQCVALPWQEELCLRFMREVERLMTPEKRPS
Assay: FAAH inhibition, mouse brain membrane homogenate assay
Format: biochemical
Settings: average; FAAH extracted from mouse brain homogenate; read-out: Mouse Brain FAAH Extract IC50
Description: Adult rats (Charles River CD strain, female, 200 g) were anaesthetized with isofluorane and rapidly decapitated. Each brain was quickly removed and chilled in tubes (3 brains per tube) on ice. About 25 mL of “homogenization buffer” (20 mM HEPES buffer, pH 7.0, with 1 mM MgCl2) was added to 15 to 20 g of brain. The brains were homogenized on ice for 1 minute using an Omni GLH homogenizer (Omni International, Marietta, Ga.). The homogenates were then transferred to three centrifuge tubes and centrifuged at 36,500 g for 20 minutes at 4° C. The supernatant was discarded and each pellet was re-suspended in 25 mL homogenization buffer. The re-suspended material was again centrifuged (36,500 g, 20 minutes at 4° C.). Pellets were combined by resuspension in 10 mL of homogenization buffer and incubated in a 37° C. water bath for 15 minutes. The tubes were then placed on ice for 5 minutes followed by centrifugation at 36,500 g for 20 minutes at 4° C. The supernatant was discarded and the membrane pellets were then re-suspended in 40 mL of “resuspension buffer” (50 mM Tris-HCl buffer, pH 7.4, containing 1 mM EDTA and 3 mM MgCl2). A Bradford Protein assay was performed to determine protein concentration. The protein was aliquotted into screw cap Cryo tubes each containing ˜400 μL, flash frozen in liquid nitrogen and stored at −80° C. until used for the assay. A similar protocol was used to obtain brain membrane homogenates from mice.
Eighteen 10 to 12 week old female CD-1 mice housed at the animal care facility of Ironwood Pharmaceuticals were anesthetized by isoflurane anesthesia and rapidly decapitated using a small decapitator (Harvard Apparatus part #PY8 SS-0012, Holliston, Mass.). Whole brain tissue from these mice was collected (approximately 9.4 g total) and placed on aluminum foil sitting on dry ice to flash freeze the tissue. Tissue was thawed and used to prepare microsomes as described above for rat brain homogenates.
FAAH activity was assayed in the respective homogenates described herein (Rat brain, Mouse brain or Human brain) for certain exemplary substrate compounds using a modification of the method of Omeir et al. (1995 Life Sci 56:1999) and Fowler et al. (1997 J. Pharmacol Exp Ther 283:729). For assay of FAAH activity in rat brain membrane (RBM) homogenates, RBM homogenates (7 μg protein in 20 μL final volume of 10 mM Tris pH 6.5) were mixed with 180 μL of a mixture of the following: 2.0 μM unlabelled anandamide, 0.03 μCi radio labeled anandamide [ethanolamine 1-^3H] (40-60 Cis/mmol, product number ART-626, American Radiolabeled Chemicals, St. Louis, Mo.), 1 mg/mL Bovine Serum Albumin (fatty acid-free BSA, electrophoresis grade, Sigma, St. Louis, Mo.), 10 mM Tris-HCl (pH 6.5), and 1 mM EDTA in the presence and absence of test compounds (vehicle was DMSO at a final concentration of 1%) and incubated for 10 minutes at 37° C. Samples were placed on ice to terminate the reactions.
^3H-ethanolamine product and un-reacted ^3H-anandamide substrate were then separated either: (1) by using chloroform/methanol extraction or (2) by passing the reaction mixture through a glass fiber filter containing activated charcoal. Samples were extracted with chloroform/methanol by adding 0.4 mL of chloroform/methanol (1:1 v/v), vigorously mixing the samples, and separating the aqueous and organic phases by centrifugation. Radioactivity (corresponding to FAAH-catalyzed breakdown of ^3H-anandamide) found in aliquots (0.2 mL) of the aqueous phase was determined by liquid scintillation counting with quench correction. IC50 values were determined as described by Jonsson et al. (2001 Br. J. Pharmacol. 133:1263). Alternatively, reactions were purified using a modification of the solid-phase extraction method described by Wilson et al (2003 Anal. Biochem. 318:270). […]

SMILES | IC50 [nM]
Cc1c(C(=O)C(=O)Nc2cccc(Cl)c2)c2ccsc2n1Cc1ccc(Cl)cc1 [Compound I-08, 2-(6-(4-chlorobenzyl)-5-methyl-6H-thieno[2,3-b]pyrrol-4-yl)-N-(3-chlorophenyl)-2-oxoacetamide] | > 5000
Cc1c(C(=O)C(=O)Nc2cccc(Cl)c2)c2c(n1Cc1ccc(Cl)cc1)CCCC2 [Compound I-16, 2-(1-(4-chlorobenzyl)-2-methyl-4,5,6,7-tetrahydro-1H-indol-3-yl)-N-(3-chlorophenyl)-2-oxoacetamide] | 2080
Cc1c(C(=O)C(=O)Nc2cccc(Cl)c2)c2c(n1Cc1ccc(Cl)cc1)CCCCCC2 [Compound I-10, 2-(1-(4-chlorobenzyl)-2-methyl-4,5,6,7,8,9-hexahydro-1H-cycloocta[b]pyrrol-3-yl)-N-(3-chlorophenyl)-2-oxoacetamide] | > 5000
Cc1c(C(=O)C(=O)Nc2cccc(Cl)c2)c2c(n1Cc1ccc(Cl)cc1)CCCCC2 [Compound I-12, 2-(1-(4-chlorobenzyl)-2-methyl-1,4,5,6,7,8-hexahydrocyclohepta[b]pyrrol-3-yl)-N-(3-chlorophenyl)-2-oxoacetamide] | 1090

These reach a lower IC50. Values come first.

IC50 [nM] | SMILES
516 | Cc1c(C(=O)C(=O)Nc2cccc(Cl)c2)c2c(n1Cc1ccc(Cl)cc1)CCC(C)(C)C2 [Compound I-14, 2-(1-(4-chlorobenzyl)-2,5,5-trimethyl-4,5,6,7-tetrahydro-1H-indol-3-yl)-N-(3-chlorophenyl)-2-oxoacetamide]
192 | COc1cc(NC(=O)C(=O)c2c3c(n(Cc4ccc(Cl)cc4)c2C)CCCCCC3)ccn1 [Compound I-11, 2-(1-(4-chlorobenzyl)-2-methyl-4,5,6,7,8,9-hexahydro-1H-cycloocta[b]pyrrol-3-yl)-N-(2-methoxypyridin-4-yl)-2-oxoacetamide]
62 | COc1cc(NC(=O)C(=O)c2c(C)n(Cc3ccc(Cl)cc3)c3sccc23)ccn1 [Compound I-09, 2-(6-(4-chlorobenzyl)-5-methyl-6H-thieno[2,3-b]pyrrol-4-yl)-N-(2-methoxypyridin-4-yl)-2-oxoacetamide]
9 | COc1cc(NC(=O)C(=O)c2c3c(n(Cc4ccc(Cl)cc4)c2C)CCCC3)ccn1 [Compound I-18, 2-(1-(4-chlorobenzyl)-2-methyl-4,5,6,7-tetrahydro-1H-indol-3-yl)-N-(2-methoxypyridin-4-yl)-2-oxoacetamide]
7 | COc1cc(NC(=O)C(=O)c2c3c(n(Cc4ccc(Cl)cc4)c2C)CCC(C)(C)C3)ccn1 [Compound I-15, 2-(1-(4-chlorobenzyl)-2,5,5-trimethyl-4,5,6,7-tetrahydro-1H-indol-3-yl)-N-(2-methoxypyridin-4-yl)-2-oxoacetamide]
3 | COc1cc(NC(=O)C(=O)c2c3c(n(Cc4ccc(Cl)cc4)c2C)CCCCC3)ccn1 [Compound I-13, 2-(1-(4-chlorobenzyl)-2-methyl-1,4,5,6,7,8-hexahydrocyclohepta[b]pyrrol-3-yl)-N-(2-methoxypyridin-4-yl)-2-oxoacetamide]
